Data on 26 molecules can be found in patent publication US20240101570A1 (AMGEN INC., priority 2020, published 2024).

One test deals with HCT116 MTAP null cells. Nature of the test: HCT116 MTAP null cell proliferation / viability (CellTiter-Glo, 6 days). The class given is cell-based. The note with it: HCT116-MTAP null, 144 h, HCT116 MTAP null cells, 6 days, CellTiter-Glo; read-out: HCT-116 MTAP null IC50. The gist of the method: (§1)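 Viability read by CellTiter-Glo after 6-day compound exposure of MTAP-null and wild-type HCT116 cells grown in RPMI 1640 with 10% FBS. Dosing used 1:3 steps from 1 or 10 μM (8-9 points) or 1:2 steps from 10 or 50 μM (22 points); IC50 taken where fitted curve crosses 50% of control.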
A general note: ATP-based viability assays read luminescence as a measure of living cells.

A further test concerns HCT116 WT cells. Nature of the test: HCT116 WT cell proliferation / viability (CellTiter-Glo, 6 days). The class given is cell-based. The note with it: Homo sapiens, HCT-116, 144 h, HCT116 WT cells, 6 days, CellTiter-Glo; read-out: HCT-116 WT IC50. The gist of the method:
as §1

Consider `CN(Cc1ccc(C(F)(F)F)nn1)C(=O)c1cc2c3c(c(N)nc2cn1)COC3` [Example 375, 4-amino-N-methyl-N-((6-(trifluoromethyl)-3-pyridazinyl)methyl)-1,3-dihydrofuro[3,4-c][1,7]naphthyridine-8-carboxamide], for which the IC50 was 1500 nM in the test with HCT116 MTAP null cells and 6890 nM in the test on HCT116 WT cells.

In the case of `C[C@H](c1ccc(C(F)(F)C(F)(F)F)cc1)N(C)C(=O)c1cc2c(cc1F)nc(N)c1cnn(C)c12` [Example 788, 4-amino-7-fluoro-N,1-dimethyl-N-((1R)-1-(4-(pentafluoroethyl)phenyl)ethyl)-1H-pyrazolo[4,3-c]quinoline-8-carboxamide], the IC50 with HCT116 MTAP null cells came out at 8 nM; in the test on HCT116 WT cells, 134 nM.

As to `CCOc1ccc(CN(CC)C(=O)c2cc3c4c(c(N)nc3cc2F)COC4)nn1` [Example 747, 4-amino-N-((6-ethoxy-3-pyridazinyl)methyl)-N-ethyl-7-fluoro-1,3-dihydrofuro[3,4-c]quinoline-8-carboxamide], the IC50 with HCT116 MTAP null cells was determined as 161 nM; in the test on HCT116 WT cells it was 5090 nM.

`C[C@H](c1ccc(C(F)(F)F)cn1)N(C)C(=O)c1cc2c3c(c(N)nc2cn1)COC3` (single isomer, unassigned) [Example 854]: the IC50 amounted to 86 nM in the test on HCT116 MTAP null cells and 3280 nM with HCT116 WT cells.

Take `CC(C)N(Cc1ccc(C2CC2)nc1)C(=O)c1cc2c3c(c(N)nc2cc1Cl)COC3` [Example 401, 4-amino-7-chloro-N-((6-cyclopropyl-3-pyridinyl)methyl)-N-(2-propanyl)-1,3-dihydrofuro[3,4-c]quinoline-8-carboxamide]: the figures for the IC50 in the test on HCT116 MTAP null cells and with HCT116 WT cells were 84 nM and 3080 nM, respectively.

For `C[C@H](c1ncc(F)cn1)N(CCOC(F)(F)F)C(=O)c1cc2c3c(c(N)nc2cc1F)COC3` (single isomer, unassigned) [Example 834], the IC50 in the test with HCT116 MTAP null cells worked out at 817 nM; with HCT116 WT cells, 19700 nM.

Regarding `CC(C)N(Cc1ccc(C(F)(F)F)nn1)C(=O)c1ccc2nc(N)c3c(c2c1)COC3` [Example 391, 4-amino-N-(2-propanyl)-N-((6-(trifluoromethyl)-3-pyridazinyl)methyl)-1,3-dihydrofuro[3,4-c]quinoline-8-carboxamide], the values for the IC50 in the test on HCT116 MTAP null cells and in the test on HCT116 WT cells were 91 nM and 4540 nM, respectively.

Turning to `C[C@H](c1ncccn1)N(Cc1ccc(C#N)cn1)C(=O)c1ccc2nc(N)c3c(c2c1)COC3` [Example 659, 4-amino-N-((5-cyano-2-pyridinyl)methyl)-N-((1R)-1-(2-pyrimidinyl)ethyl)-1,3-dihydrofuro[3,4-c]quinoline-8-carboxamide], the IC50 in the test with HCT116 MTAP null cells turned out to be 14 nM; with HCT116 WT cells, 378 nM.

`N#Cc1ccc(CN(CC2CC2)C(=O)c2cc3c4c(c(N)nc3cc2Cl)COC4)nc1` [Example 474, 4-amino-7-chloro-N-((5-cyano-2-pyridinyl)methyl)-N-(cyclopropylmethyl)-1,3-dihydrofuro[3,4-c]quinoline-8-carboxamide]: the IC50 is 30 nM with HCT116 MTAP null cells and 1330 nM in the test with HCT116 WT cells.

On to `Cn1cc(N(Cc2ccc(C(F)(F)F)cn2)C(=O)c2cc3c(cc2F)nc(N)c2c3cnn2C)cn1` [Example 506, 4-amino-7-fluoro-3-methyl-N-(1-methyl-1H-pyrazol-4-yl)-N-((5-(trifluoromethyl)-2-pyridinyl)methyl)-3H-pyrazolo[3,4-c]quinoline-8-carboxamide], for which the IC50 in the test on HCT116 MTAP null cells was found to be 9 nM; with HCT116 WT cells, 369 nM.

Regarding `CCN(Cc1ccc(C(F)(F)F)cn1)C(=O)c1cc2c(cc1F)nc(N)c1cnn(C)c12` [Example 554, 4-amino-N-ethyl-7-fluoro-1-methyl-N-((5-(trifluoromethyl)-2-pyridinyl)methyl)-1H-pyrazolo[4,3-c]quinoline-8-carboxamide], the IC50 with HCT116 MTAP null cells worked out at 8 nM; with HCT116 WT cells it was 181 nM.

For the molecule `CCOc1ccc(CN(C(=O)c2ccc3nc(N)c4c(c3c2)CO[C@@H]4C)[C@H](C)COC)nn1` [Example 374, (3R)-4-amino-N-((6-ethoxy-3-pyridazinyl)methyl)-N-((2R)-1-methoxy-2-propanyl)-3-methyl-1,3-dihydrofuro[3,4-c]quinoline-8-carboxamide], the IC50 in the test with HCT116 MTAP null cells is 14 nM; in the test on HCT116 WT cells, 286 nM.

Take `C[C@H]1OCc2c1c(N)nc1ccc(C(=O)N(Cc3ccc(C(F)(F)F)cn3)C3CCOCC3)cc21` [Example 489, (3R)-4-amino-3-methyl-N-(tetrahydro-2H-pyran-4-yl)-N-((5-(trifluoromethyl)-2-pyridinyl)methyl)-1,3-dihydrofuro[3,4-c]quinoline-8-carboxamide]: the IC50 in the test with HCT116 MTAP null cells amounted to 276 nM; in the test on HCT116 WT cells, 5210 nM.

For `CN(Cc1ccc(C(F)(F)F)cc1)C(=O)c1ccc2nc(N)c3c(c2c1)COC3` [Example 399, 4-amino-N-methyl-N-(4-(trifluoromethyl)benzyl)-1,3-dihydrofuro[3,4-c]quinoline-8-carboxamide], the IC50 with HCT116 MTAP null cells was 393 nM; with HCT116 WT cells it was 4430 nM.

Take `CN(Cc1ccc(C2CC2)nn1)C(=O)c1cc2c(cc1F)nc(N)c1cnn(C)c12` [Example 518, 4-amino-N-((6-cyclopropyl-3-pyridazinyl)methyl)-7-fluoro-N,1-dimethyl-1H-pyrazolo[4,3-c]quinoline-8-carboxamide]: the IC50 in the test on HCT116 MTAP null cells amounted to 106 nM; in the test with HCT116 WT cells, 6270 nM.

Regarding `Cn1ncc2c(N)nc3ccc(C(=O)N(Cc4ccc(C(F)(F)F)cn4)CC(F)(F)F)cc3c21` [Example 797, 4-amino-1-methyl-N-(2,2,2-trifluoroethyl)-N-((5-(trifluoromethyl)-2-pyridinyl)methyl)-1H-pyrazolo[4,3-c]quinoline-8-carboxamide], the results for the IC50 in the test on HCT116 MTAP null cells and in the test with HCT116 WT cells were 41 nM and 755 nM, respectively.

Regarding `Nc1nc2cc(Cl)c(C(=O)N(Cc3ccc(C(F)(F)F)cn3)C34CC(C3)C4)cc2c2c1COC2` [Example 395, 4-amino-N-(bicyclo[1.1.1]pentan-1-yl)-7-chloro-N-((5-(trifluoromethyl)-2-pyridinyl)methyl)-1,3-dihydrofuro[3,4-c]quinoline-8-carboxamide], the IC50 stood at 31 nM with HCT116 MTAP null cells and 535 nM in the test on HCT116 WT cells.

Turning to `CC(C)N(Cc1ccc(C2CC2)cn1)C(=O)c1cc2c3c(c(N)nc2cc1Cl)COC3` [Example 379, 4-amino-7-chloro-N-((5-cyclopropyl-2-pyridinyl)methyl)-N-(2-propanyl)-1,3-dihydrofuro[3,4-c]quinoline-8-carboxamide], the half-maximal inhibitory concentration (IC50) is 25 nM in the test with HCT116 MTAP null cells and 764 nM in the test with HCT116 WT cells.

`C[C@H](c1ncccn1)N(Cc1cc2c(cn1)OCCC2)C(=O)c1cc2c3c(c(N)nc2cn1)COC3` [Example 686, 4-amino-N-(3,4-dihydro-2H-pyrano[2,3-c]pyridin-6-ylmethyl)-N-((1R)-1-(2-pyrimidinyl)ethyl)-1,3-dihydrofuro[3,4-c][1,7]naphthyridine-8-carboxamide]: the IC50 is 445 nM in the test with HCT116 MTAP null cells and 8800 nM with HCT116 WT cells.

With `CCOc1ccc(CN(C(=O)c2cc3c4c(c(N)nc3cn2)[C@@H](C)OC4)[C@H](C)COC)nn1` [Example 397, (3R)-4-amino-N-((6-ethoxy-3-pyridazinyl)methyl)-N-((2R)-1-methoxy-2-propanyl)-3-methyl-1,3-dihydrofuro[3,4-c][1,7]naphthyridine-8-carboxamide], the values for the IC50 in the test with HCT116 MTAP null cells and with HCT116 WT cells were 55 nM and 1100 nM, respectively.

With `CC1OCc2c1c(N)nc1ccc(C(=O)N(Cc3ccc(C(F)(F)F)cn3)[C@H]3C[C@@H]3C(F)(F)F)cc21` (mixture of isomers) [Example 910, 4-amino-3-methyl-N-((1R,2R)-2-(trifluoromethyl)cyclopropyl)-N-((5-(trifluoromethyl)-2-pyridinyl)methyl)-1,3-dihydrofuro[3,4-c]quinoline-8-carboxamide and 4-amino-3-methyl-N-((1S,2S)-2-(trifluoromethyl)cyclopropyl)-N-((5-(trifluoromethyl)-2-pyridinyl)methyl)-1,3-dihydrofuro[3,4-c]quinoline-8-carboxamide], the IC50 in the test with HCT116 MTAP null cells is 22 nM; in the test with HCT116 WT cells, 3000 nM.

On to `CCN(C(=O)c1cc2c3c(c(N)nc2cn1)COC3)[C@@H](C)c1ccc(C(F)(F)F)cn1` (single isomer, unassigned) [Example 824], for which the IC50 in the test on HCT116 MTAP null cells was determined as 2390 nM; with HCT116 WT cells, 26300 nM.

`CCOc1ccc(CN(CC2CC2)C(=O)c2ccc3nc(N)c4c(c3c2)CO[C@@H]4C)nn1` [Example 766, (3R)-4-amino-N-(cyclopropylmethyl)-N-((6-ethoxy-3-pyridazinyl)methyl)-3-methyl-1,3-dihydrofuro[3,4-c]quinoline-8-carboxamide]: the figures for the IC50 in the test with HCT116 MTAP null cells and with HCT116 WT cells were 61 nM and 1910 nM, respectively.

`C[C@H]1OCc2c1c(N)nc1ccc(C(=O)N(Cc3ccc(C(F)(F)F)nn3)C3CC3)cc21` [Example 353, (3R)-4-amino-N-cyclopropyl-3-methyl-N-((6-(trifluoromethyl)-3-pyridazinyl)methyl)-1,3-dihydrofuro[3,4-c]quinoline-8-carboxamide]: the figures for the half-maximal inhibitory concentration (IC50) in the test with HCT116 MTAP null cells and with HCT116 WT cells were 124 nM and more than 10000 nM, respectively.

With `CN(Cc1ccc(C2CC2)nn1)C(=O)c1cc2c(cc1F)nc(N)c1c2cnn1C` [Example 517, 4-amino-N-((6-cyclopropyl-3-pyridazinyl)methyl)-7-fluoro-N,3-dimethyl-3H-pyrazolo[3,4-c]quinoline-8-carboxamide], the IC50 amounted to 706 nM in the test with HCT116 MTAP null cells and 45400 nM in the test with HCT116 WT cells.

`C[C@H]1OCc2c1c(N)nc1cnc(C(=O)N(Cc3ccc(C(F)(F)F)cn3)CC(F)(F)F)cc21` [Example 320, (3R)-4-amino-3-methyl-N-(2,2,2-trifluoroethyl)-N-((5-(trifluoromethyl)-2-pyridinyl)methyl)-1,3-dihydrofuro [3,4-c][1,7]naphthyridine-8-carboxamide]: the IC50 stood at 303 nM in the test on HCT116 MTAP null cells and 15800 nM in the test on HCT116 WT cells.

For orientation: IC50 means the concentration that inhibits the measured activity by half.
